# In patent US9718828B2 (MERCK SHARP & DOHME CORP., priority 2011, dated 2017):
# pEC50: −log10 of the molar value.
# Target: Btk enzyme (His-Btk) (Homo sapiens (Human), UniProt Q06187)
# Test: Btk enzyme activity, IMAP fluorescence polarization assay (Assay Method A)
# Settings: not given
# Btk enzyme (His-Btk), sequence (Q06187 whole entry): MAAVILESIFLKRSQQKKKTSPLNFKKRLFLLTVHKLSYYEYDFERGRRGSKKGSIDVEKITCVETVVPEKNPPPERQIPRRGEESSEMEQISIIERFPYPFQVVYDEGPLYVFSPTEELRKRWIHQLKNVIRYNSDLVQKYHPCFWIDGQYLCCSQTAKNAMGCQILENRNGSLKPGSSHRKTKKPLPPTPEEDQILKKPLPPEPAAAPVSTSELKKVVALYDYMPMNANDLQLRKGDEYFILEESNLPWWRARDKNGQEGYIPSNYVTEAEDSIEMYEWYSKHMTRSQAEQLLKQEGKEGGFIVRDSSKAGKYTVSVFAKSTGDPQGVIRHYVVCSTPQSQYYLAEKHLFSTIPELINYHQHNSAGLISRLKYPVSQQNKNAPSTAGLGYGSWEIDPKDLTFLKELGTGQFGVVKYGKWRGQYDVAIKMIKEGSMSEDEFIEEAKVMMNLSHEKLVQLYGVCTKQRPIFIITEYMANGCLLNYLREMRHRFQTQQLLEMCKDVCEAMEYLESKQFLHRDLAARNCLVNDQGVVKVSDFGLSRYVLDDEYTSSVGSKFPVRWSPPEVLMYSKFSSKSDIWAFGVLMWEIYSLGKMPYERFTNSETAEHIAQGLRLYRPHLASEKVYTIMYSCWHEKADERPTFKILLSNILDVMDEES
row,SMILES,pEC50
1,"Nc1nccn2c([C@@H]3CCCN(C(=O)C4CC(F)(F)C4)C3)nc(-c3ccc(C(=O)Nc4cc(C(F)(F)F)ccn4)cc3)c12 [Example 83, (R)-4-(8-amino-3-(1-(3,3-difluorocyclobutanecarbonyl)piperidin-3-yl)imidazo[1,5-a]pyrazin-1-yl)-N-(4-(trifluoromethyl)pyridin-2-yl)benzamide]",> 8.00
2,"Nc1nccn2c([C@@H]3CCCN(C(=O)C4CN(C(=O)c5ccccc5)C4)C3)nc(-c3ccc(C(=O)Nc4cc(C(F)(F)F)ccn4)cc3)c12 [Example 84, (R)-4-(8-amino-3-(1-(1-benzoylazetidine-3-carbonyl)piperidin-3-yl)imidazo[1,5-a]pyrazin-1-yl)-N-(4-(trifluoromethyl)pyridin-2-yl)benzamide]",> 8.00
3,"NCCOCCOCCOCCOCCC(=O)N1CCC[C@@H](c2nc(-c3ccc(C(=O)Nc4cc(C(F)(F)F)ccn4)cc3)c3c(N)nccn23)C1 [Example 85, (R)-4-(8-amino-3-(1-(1-amino-3,6,9,12-tetraoxapentadecane)piperidin-3-yl)imidazo[1,5-a]pyrazin-1-yl)-N-(4-(trifluoromethyl)pyridin-2-yl)benzamide]",> 8.00
4,"Nc1nccn2c([C@@H]3CCCN(C(=O)C4CSC4)C3)nc(-c3ccc(C(=O)Nc4cc(C(F)(F)F)ccn4)cc3)c12 [Example 86, (R)-4-(8-amino-3-(1-(thietane-3-carbonyl)piperidin-3-yl)imidazo[1,5-a]pyrazin-1-yl)-N-(4-(trifluoromethyl)pyridin-2-yl)benzarnide]",> 8.00
5,"Nc1nccn2c([C@@H]3CCCN(C(=O)[C@H]4CC(=O)N4)C3)nc(-c3ccc(C(=O)Nc4cc(C(F)(F)F)ccn4)cc3)c12 [Example 87, 4-(8-amino-3-((R)-1-((R)-4-oxoazetidine-2-carbonyl)piperidin-3-yl)imidazo[1,5-a]pyrazin-1-yl)-N-(4-(trifluoromethyl)pyridin-2-yl)benzamide]",> 8.00
6,"CN(C)C1(C(=O)N2CCC[C@@H](c3nc(-c4ccc(C(=O)Nc5cc(C(F)(F)F)ccn5)cc4)c4c(N)nccn34)C2)CC1 [Example 88, (R)-4-(8-amino-3-(1-(1-(dimethylamino)cyclopropane-carbonyl)piperidin-3 yl)imidazo[1,5-a]pyrazin-1-yl)-N-(4-(trifluoromethyl)pyridin-2-yl)benzamide]",7.00 to 8.00
7,"CC(C)C1CC(C(=O)N2CCC[C@@H](c3nc(-c4ccc(C(=O)Nc5cc(C(F)(F)F)ccn5)cc4)c4c(N)nccn34)C2)C1 (stereo partly drawn) [Example 89, (R)-4-(8-amino-3-(1-(3-isopropylcyclobutanecarbonyl)piperidin-3-yl)imidazo[1,5-a]pyrazin-1-yl)-N-(4-(trifluoromethyl)pyridin-2-yl)benzamide]",> 8.00
8,"Nc1nccn2c([C@@H]3CCCN(C(=O)C45CC(C4)C5)C3)nc(-c3ccc(C(=O)Nc4cc(C(F)(F)F)ccn4)cc3)c12 [Example 90, (R)-4-(8-amino-3-(1-(bicyclo[1.1.1]pentane-1-carbonyl)piperidin-3-yl)imidazo[1,5-a]pyrazin-1-yl)-N-(4-(trifluoromethyl)pyridin-2-yl)benzamide]",> 8.00
9,"C=CC1(C(=O)N2CCC[C@@H](c3nc(-c4ccc(C(=O)Nc5cc(C(F)(F)F)ccn5)cc4)c4c(N)nccn34)C2)COC1 [Example 91, (R)-4-(8-amino-3-(1-(3-vinyloxetane-3-carbonyl)piperidin-3-yl)imidazo[1,5-a]pyrazin-1-yl)-N-(4-(trifluoromethyl)pyridin-2-yl)benzamide]",> 8.00
10,"Nc1nccn2c([C@@H]3CCCN(C(=O)CC4CC4)C3)nc(-c3ccc(C(=O)Nc4ccccn4)cc3)c12 [Example 92, (R)-4-(8-amino-3-(1-(2-cyclopropylacetyl)piperidin-3 yl)imidazo[1,5-a]pyrazin-1-yl)-N-(pyridin-2-yl)benzamide]",> 8.00
11,"CCC(F)(F)C(=O)N1CCC[C@@H](c2nc(-c3ccc(C(=O)Nc4ccccn4)cc3)c3c(N)nccn23)C1 [Example 93, (R)-4-(8-amino-3-(1-(2,2-difluorobutanoyl)piperidin-3-yl)imidazo[1,5-a]pyrazin-1-yl)-N-(pyridin-2-yl)benzamide]",7.00 to 8.00
12,"Nc1nccn2c([C@@H]3CCCN(C(=O)C4(O)CC4)C3)nc(-c3ccc(C(=O)Nc4ccccn4)cc3)c12 [Example 94, (R)-4-(8-amino-3-(1-(1-hydroxycyclopropanecarbonyl)piperidin-3-yl)imidazo[1,5-a]pyrazin-1-yl)-N-(pyridin-2-yl)benzamide]",7.00 to 8.00
13,"Nc1nccn2c([C@@H]3CCCN(C=O)C3)nc(-c3ccc(C(=O)Nc4ccccn4)cc3)c12 [Example 95, (R)-4-(8-amino-3-(1-formylpiperidin-3-yl)imidazo[1,5-a]pyrazin-1-yl)-N-(pyridin-2-yl)benzamide]",7.00 to 8.00
14,"CCC(=O)N1CCC[C@@H](c2nc(-c3ccc(C(=O)Nc4cc(C#N)ccn4)cc3)c3c(N)nccn23)C1 [Example 96, (R)-4-(8-amino-3-(1-propionylpiperidin-3-yl)imidazo[1,5-a]pyrazin-1-yl)-N-(4-cyanopyridin-2-yl)benzamide]",> 8.00
15,"COCCC(=O)N1CCC[C@@H](c2nc(-c3ccc(C(=O)Nc4cc(C#N)ccn4)cc3)c3c(N)nccn23)C1 [Example 97, (R)-4-(8-amino-3-(1-(3-methoxypropanoyl)piperidin-3-yl)imidazo[1,5-a]pyrazin-1-yl)-N-(4-cyanopyridin-2-yl)benzamide]",> 8.00
16,"N#Cc1ccnc(NC(=O)c2ccc(-c3nc([C@@H]4CCCN(C(=O)C5CC5)C4)n4ccnc(N)c34)cc2)c1 [Example 98, (R)-4-(8-amino-3-(1-(cyclopropanecarbonyl)piperidin-3-yl)imidazo[1,5-a]pyrazin-1 yl)-N-(4-cyanopyridin-2-yl)benzamide]",> 8.00
17,"CC1(C(=O)N2CCC[C@@H](c3nc(-c4ccc(C(=O)Nc5cc(C#N)ccn5)cc4)c4c(N)nccn34)C2)COC1 [Example 99, (R)-4-(8-amino-3-(1-(3-methyloxetane-3 carbonyl)piperidin-3-yl)imidazo[1,5-a]pyrazin-1-yl)-N-(4-cyanopyridin-2-yl)benzamide]",> 8.00
18,"Nc1nccn2c([C@@H]3CCCN(C(=O)C4CC4)C3)nc(-c3ccc(C(=O)Nc4cc(C(F)(F)F)ccn4)cc3)c12 [Example 103, (R)-4-(8-amino-3-(1-(cyclopropanecarbonyl)piperidin-3-yl)imidazo[1,5-a]pyrazin-1-(trifluoromethyl)pyridin-2-yl)benzamide]",> 8.00
19,"CC(C)(C#N)C(=O)N1CCC[C@@H](c2nc(-c3ccc(C(=O)Nc4ccccn4)cc3)c3c(N)nccn23)C1 [Example 108, (R)-4-(8-amino-3-(1-(2-cyano-2-methylpropanoyl)piperidin-3-yl)imidazo[1,5-a]pyrazin-1-yl)-N-(pyridin-2-yl)benzamide]",7.00 to 8.00
20,"CN(C)C(=O)C(=O)N1CCC[C@@H](c2nc(-c3ccc(C(=O)Nc4cc(C5CC5)ccn4)cc3)c3c(N)nccn23)C1 [Example 111, (R)-4-(8-amino-3-(1-(2-(dimethylamino)-2-oxoacetyl)piperidin-3-yl)imidazo[1,5-a]pyrazin-1-yl)-N-(4-cyclopropylpyridin-2-yl)benzamide]",7.00 to 8.00

# Same assay, conditions: read-out: EC50 Btk activity values - Assay Method A
row,SMILES,pEC50
1,"Nc1nccn2c([C@@H]3CCCN(C(=O)OCc4ccccc4)C3)nc(-c3ccc(C(=O)Nc4cc(C(F)(F)F)ccn4)cc3)c12 [Example 107, (R)-benzyl 3-(8-amino-1-(4-(4-(trifluoromethyl)pyridin-2-ylcarbamoyl)phenyl)imidazo[1,5-a]pyrazin-3-yl)piperidine-1-carboxylate]",> 8.00

# Same assay, conditions: read-out: EC50 Btk activity values - Assay Method A; IMAP-FP, 60 min pre-incubation, 5 μM ATP; class 100-1000 is given as ≧100 nM-<1 μM
row,SMILES,pEC50
1,"CC(C)C(=O)N1CCC[C@@H](c2nc(-c3ccc(C(=O)Nc4cc(C#N)ccn4)cc3)c3c(N)nccn23)C1 [Example 100, (R)-4-(8-amino-3-(1-isobutyrylpiperidin-3 yl)imidazo[1,5-a]pyrazin-1-yl)-N-(4-cyanopyridin-2-yl)benzamide]",> 8.00
2,"CCNC(=O)N1CCC[C@@H](c2nc(-c3ccc(C(=O)Nc4cc(C#N)ccn4)cc3)c3c(N)nccn23)C1 [Example 101, (R)-3-(8-amino-1-(4-(4-cyanopyridin-2-ylcarbamoyl)phenyl)imidazo [1,5-a]pyrazin-3-yl)-N-ethylpiperidine-1-carboxamide]",> 8.00
3,"CC(C)C(=O)N1CCC[C@@H](c2nc(-c3ccc(C(=O)Nc4cc(C(F)(F)F)ccn4)cc3)c3c(N)nccn23)C1 [Example 104, (R)-4-(8-amino-3-(1-isobutyrylpiperidin-3-yl)imidazo[1,5-a]pyrazin-1-yl)-N-(4-(trifluoromethyl)pyridin-2-yl)benzamide]",> 8.00
4,"CC(CO)(CO)C(=O)N1CCC[C@@H](c2nc(-c3ccc(C(=O)Nc4cc(C(F)(F)F)ccn4)cc3)c3c(N)nccn23)C1 [Example 105, (R)-4-(8-amino-3-(1-(3-hydroxy-2-(hydroxymethyl)-2-methylpropanoyl)piperidin-3 yl)imidazo[1,5-a]pyrazin-1-yl)-N-(4-(trifluoromethyl)pyridin-2-yl)benzamide]",> 8.00
5,"Nc1nccn2c([C@@H]3CCCNC3)nc(-c3ccc(C(=O)Nc4cc(C(F)(F)F)ccn4)cc3)c12 [Example 106, (R)-4-(8-amino-3-(piperidin-3-yl)imidazo[1,5-a]pyrazin-1-yl)-N-(4-(trifluoromethyl)pyridin-2-yl)benzamide]",> 8.00
6,"Nc1nccn2c([C@@H]3CCCN(C(=O)C4CC(F)(F)C4)C3)nc(-c3ccc(C(=O)Nc4cc(C5CC5)ccn4)cc3)c12 [Example 109, (R)-4-(8-amino-3-(1-(3,3-difluorocyclobutanecarbonyl)piperidin-3-yl)imidazo[1,5-a]pyrazin-1-yl)-N-(4-cyclopropylpyridin-2-yl)benzamide]",> 8.00
7,"Nc1nccn2c([C@@H]3CCCN(C(=O)CN4CCOC4=O)C3)nc(-c3ccc(C(=O)Nc4cc(C5CC5)ccn4)cc3)c12 [Example 110, (R)-4-(8-amino-3-(1-(2-(2-oxooxazolidin-3-yl)acetyl)piperidin-3-yl)imidazo[1,5-a]pyrazin-1-yl)-N-(4-cyclopropylpyridin-2-yl)benzamide]",> 8.00
